In patent US8455550B2, “Derivatives of aminocyclobutane or aminocyclobutene, their method of preparation and their use as medical products” (Pierre Fabre Medicament, priority 2009, dated 2013):

Assays:
Male Sprague Dawley rats [1] = assay: Formaldehyde test, analgesic activity, late phase; format: in vivo, rat; conditions: for Paw licking Score observed at 40 mg/Kg / Paw lifting Score observed at 40 mg/Kg: 40 mg/Kg ip 15 min before formaldehyde 2.5%, late phase 22.5-27.5 min, maximum score 10
Method: The analgesic activity of the formula (1) compounds and of milnacipran, chosen as reference compound, was determined using a conventional pain module in which formaldehyde is injected to cause a painful sensation in animals (Eur. J. Pharmacol. 2001, 421, 109). The rats (Male Sprague Dawley rats (ICO: OFA SD [IOPS], Iffa Credo, France) are placed in observation boxes in Plexiglas above an angled mirror to facilitate observation of their hind paws. After thirty minutes habituation, the animals are given an injection of formaldehyde diluted to 2.5% on the plantar surface of the right hind paw. The injection of formaldehyde produces behavioural responses which occur in two phases: • an early phase, 0 to 5 min after injection of formaldehyde, corresponding to stimulation of the receptors specialized in the transmission of nociceptive stimuli. • a late phase which occurs between 20 and 30 min after injection. This phase corresponds to the stimulation of receptors by inflammatory mediators and/or to hyperexcitability of the dorsal horn induced during the first phase. This later phase therefore involves central sensitization and causes pain more representative of neuropathic pain compared with the pain which occurs during the first phase. On this account, only the results obtained in this later phase are taken into consideration in the present application. To study the compounds of the invention, we selected two expressions of painful behaviour (paw licking, lifting of injected paw) and chose as observation period the period which corresponds to the late phase (i.e. 22.5-27.5 min). During this 5 min phase, the animals are observed every 30 s and the following behaviours are recorded: licking or non-licking of the injected hind paw and lifting or not of the injected hind paw. Ten observations give a maximum score of 10 for each parameter. The products of the invention are given via intra-peritoneal route 15 min before the injection of formaldehyde.

adult rat = assay: Ultrasonic vocalizations (USV) test, antistress/anxiolytic activity; format: in vivo; conditions: 22 kHz vocalizations
Method: Antistress/anxiolytic activity was determined on a conventional model using ultrasonic vocalizations (USVs) emitted by an adult rat when subjected to stress (Eur. J. Pharmacol. 2003, 463, 133).
The experiments were conducted in standard operative cages (250×320×250 mm) insulated from noise and light. The floor of the cages is covered with a grid in stainless steel and connected to an electric shock generator delivering a fixed intensity of 0.4 mA. The device is provided on one of its walls with a light source (2 lux). The ULTRAVOX system (Noldus, Wageningen, Pays Bas) is used to record ultrasonic vocalizations at a frequency defined by an ultrasound detector, an audio-filter box and acquisition software. For this experiment, the capture frequency was set at 22 kHz. The software allows the recording of all vocalizations of 22 kHz lasting a time of more 100 ms emitted by the animals. The test starts with a habituation session of 11 min 25 s, during which the animals are individually placed in the operative device without being subjected to conditioning (neither light nor electric shock).
During a second phase, the animals are subjected to a conditioning phase of 3 sessions given over 3 consecutive days. […]

Male Sprague Dawley rats [2] = assay: Forced swimming test, antidepressant activity; format: in vivo, rat; conditions: 40 mg/Kg ip, single administration 30 min before test; 5 min observation; FIG. 1
Method: The antidepressant activity of the compounds of the invention was evidenced by the forced swimming test in rats (Eur. J. Pharmacol. 1978, 47, 379). This model is widely used since it is predictive of antidepressant activity in man.
The rats (Male Sprague Dawley rats (ICO: OFA SD [IOPS], Iffa Credo, France), are placed in a cylinder (height 45 cm and diameter 20 cm) filled with water at 25° C.±0.5 up to a height of 17 cm. This height allows the rats to swim or float without their paws touching the bottom of the cylinder. 24 h before the test day, the rats are placed in the cylinder for 15 min, after which time they no longer attempt to escape and remain immobile. On the test day, the animals are put back in the cylinder and the duration of immobility of the animal is measured and monitored using audiovisual recording for 5 min. The products of the invention are administered via ip route 30 min before the test. A rat is considered to be immobile when it allows itself to float and only makes small movements to remain on the surface.

Molecule | Paw licking Score observed at 40 mg/Kg (Male Sprague Dawley rats [1]) | Paw lifting Score observed at 40 mg/Kg (Male Sprague Dawley rats [1]) | Duration of USVs minimum significant dose (MSD) (adult rat) [mg/kg] | Duration of immobility (effect in words) (Male Sprague Dawley rats [2]) | Paw lifting and paw licking in late phase (effect in words) (Male Sprague Dawley rats [1]; ip, late phase of formaldehyde test)
CCN(CC)C(=O)[C@@]1(c2ccccc2)C[C@H]1CN (racemic) [milnacipran, cis-(±)-N,N-diethyl-(1-phenyl-2-aminomethyl)-cyclopropanecarboxamide, reference compound] | 2.0 ± 0.8 | 6.3 ± 1.4 | 10 | no effect | 
(±)-cis-N,N-diethyl (1-phenyl-2-aminomethyl)-cyclobutanecarboxamide [Compound 1a] | 1.0 ± 0.4 | 3.7 ± 1.1 | 10 | significantly decreasing the duration of immobility | significantly reduces both paw lifting and paw licking
